Reference: patent US6916484B1, “Aqueous pharmaceutical composition containing moxifloxacin or salts thereof” (Bayer Aktiengesellschaft, priority 1999, dated 2005)
Where a name gives a salt, the structure may show the parent alone.

Test: Saturation solubility of moxifloxacin hydrochloride in water
Assay type: physicochemical
Settings: aqueous solution, room temperature
Protocol: Accordingly, freshly prepared solutions of moxifloxacin with sugars and/or sugar alcohols have, even if they have relatively high iron contents, a sufficient stability against the formation of particles for the period of use of, preferably, up to 12 hours after preparation. Thus, the problem to be solved by the invention can also be overcome by iron-containing solutions for infusion which are used immediately after preparation. Here, it is expedient to use a process in which a pre-formed concentrated aqueous solution of moxifloxacin or a salt thereof and a pre-formed solution of the sugar and/or the sugar alcohols are mixed with one another. […] The concentrated aqueous solution of moxifloxacin id hydrochloride preferably contains from 0.4% (w/v) to 2.4% (w/v) of moxifloxacin (calculated as betaine). […] The active compound concentrate preferably comprises from 1.0 to 2.0% (w/v) of moxifloxacin (calculated as betaine), particularly preferably 2.0% (w/v) of moxifloxacin (calculated as betaine). […]

With `COc1c(N2C[C@@H]3CCCN[C@@H]3C2)c(F)cc2c(=O)c(C(=O)O)cn(C3CC3)c12` [moxifloxacin hydrochloride, 1-cyclopropyl-7-([S,S]-2,8-diazabicyclo[4.3.0]non-8-yl)-6-fluoro-1,4-dihydro-8-methoxy-4-oxo-3-quinolonecarboxylic acid] the saturation solubility was “about 2.4 % (w/v)”.
